# Experimental data from US7691842B2, “Tricyclic 6-alkylidene-penems as β-lactamase inhibitors” (Wyeth LLC, priority 2002, dated 2010).
# Counter-ions that a name gives are not always drawn. Like-named read-outs stand apart in the source and are kept apart here.
# Assays:
# class B enzyme CcrA = class B enzyme CcrA (Bacteroides fragilis, UniProt P25910); assay: β-Lactamase inhibition, IC50 determination (nitrocefin, spectrophotometric); assay type: biochemical; details: enzyme 1.2 nM; 10 min preincubation at 25° C.; nitrocefin 50 μg/ml; 50 mM PO4, pH 7.0; read-out: IC50 (nM) Class B Ccr
# Experimental: (§1) IC50 Determination for the Penem Inhibitor
# (§2) β-Lactamase inhibitory activity of the penem inhibitors was determined spectrophotometrically as described by Bush et al., [Bush, K., Macalintal, C., Rasmussen, B. A., Lee, V. and Yang, Y. Antimicrobial Agents and Chemotherapy 1993, 37, 851]. Homogeneously purified class A β-lactamases TEM-1 from E. Coli and Imi-1 from Enterobacter cloacae, class B enzyme CcrA from Bacteroides fragilis and class C enzyme AmpC from Enterobacter cloaca were employed in the assay. The enzyme concentrations for TEM-1, Imi-1, CcrA and AmpC were 4.3, 7.1, 1.2 and 2.1 nM, respectively. A wide range of inhibitor concentrations were prepared in 50 mM PO4, pH 7.0 to include the possible IC50 values. The substrate used to initiate the enzyme reaction was nitrocefin at 50 μg/ml in the same buffer as the inhibitor. Initially the enzyme and inhibitor (20 μl each) were preincubated for 10 minutes at 25° C. prior to the addition of 160 μl volume of nitrocefin. Initial rates of hydrolysis were monitored for 5 minutes at 495 nm using a Molecular Devices Spectra Max 250 with kinetic protocol of SoftMax Program. Readings from the Spectra Max 250 were exported and transferred to Microsoft Excel. The percent of inhibition of each inhibitor concentration was calculated based on the control enzyme activity. The inhibitor concentration that caused a 50% reduction in the enzymatic activity (IC50) was determined graphically.
# [1] = target: class A β-lactamase Imi-1 (Enterobacter cloacae, UniProt Q46991); assay: as above; assay type: biochemical
# Experimental: as §1, §2
# class C enzyme AmpC = class C enzyme AmpC (Enterobacter cloacae, UniProt P05364); assay: biochemical; parameters: species or system Enterobacter cloaca
# Experimental: as §1, §2
# [2] = target: class A β-lactamase TEM-1 (Escherichia coli, UniProt P62593); assay: β-Lactamase inhibition, IC50 determination (nitrocefin, spectrophotometric); assay type: biochemical, E. Coli
# Experimental: as §1, §2
# [3] = tested on: S. Marcescens GC1781 Sme-1 + Ampc; assay: Antimicrobial susceptibility testing, microbroth dilution MIC of piperacillin + inhibitor; assay type: cell-based; details: piperacillin combined with constant 4 μg/ml inhibitor; Inc: 35° C. for 18 hours
# Experimental: (§3) Antimicrobial susceptibility testing. The in vitro activities of the antibiotics were determined by the microbroth dilution method as recommended by the National Committee for Clinical Laboratory Standards (NCCLS). (NCCLS. 2000. Methods for Dilution Antimicrobial Susceptibility Tests for Bacteria That Grow Aerobically; Approved Standards: M7-A5, vol. 19. National Committee for Clinical Laboratory Standards, Villanova, Pa.). Mueller-Hinton it broth (MHBII)(BBL Cockeysville, Md.), was used for the testing procedure. Microtiter plates containing 50 μl per well of two-fold serial dilutions of piperacillin combined with a constant amount (4 μg/ml) of a B-lactamase inhibitor (final concentration) were inoculated with 50 μl of inoculum to yield the appropriate density (10^5 CFU/ml) in 100 μl. The plates were incubated for 18-22 hours at 35° C. in ambient air.
# E. Coli GC2894 (Ampc) = assay: as above; assay type: cell-based; details: piperacillin combined with constant 4 μg/ml inhibitor; Inc: 35° C. for 18 hours
# Experimental: as §3
# E. Coli GC2203 = assay: as above; assay type: cell-based; details: piperacillin combined with constant 4 μg/ml inhibitor; Inc: 35° C. for 18 hours
# Experimental: as §3
# [4] = tested on: P. aeruginos GC1764 (Ampc); assay: as above; assay type: cell-based; details: piperacillin combined with constant 4 μg/ml inhibitor; Inc: 35° C. for 18 hours
# Experimental: as §3
# E. Coli GC2847 (TEM-1) = assay: as above; assay type: cell-based; details: piperacillin combined with constant 4 μg/ml inhibitor; Inc: 35° C. for 18 hours
# Experimental: as §3
# E. Cloacae GC1477 (Ampc) = assay: as above; assay type: cell-based; details: piperacillin combined with constant 4 μg/ml inhibitor; Inc: 35° C. for 18 hours
# Experimental: as §3
# E. Coli GC2920 (IRT-2) = assay: as above; assay type: cell-based; details: piperacillin combined with constant 4 μg/ml inhibitor; Inc: 35° C. for 18 hours
# Experimental: as §3
# E. Coli GC2844 = assay: as above; assay type: cell-based; details: piperacillin combined with constant 4 μg/ml inhibitor; Inc: 35° C. for 18 hours
# Experimental: as §3
# [5] = enzyme 7.1 nM, 10 min preincubation at 25° C., nitrocefin 50 μg/ml, 50 mM PO4, pH 7.0, read-out: IC50 (nM) Class A Imi
# [6] = enzyme 2.1 nM, 10 min preincubation at 25° C., nitrocefin 50 μg/ml, 50 mM PO4, pH 7.0, read-out: IC50 (nM) Class C AmpC
# [7] = enzyme 4.3 nM, 10 min preincubation at 25° C., nitrocefin 50 μg/ml, 50 mM PO4, pH 7.0, read-out: IC50 (nM) Class A TEM-1
# Sequence of class B enzyme CcrA (P25910 19-249): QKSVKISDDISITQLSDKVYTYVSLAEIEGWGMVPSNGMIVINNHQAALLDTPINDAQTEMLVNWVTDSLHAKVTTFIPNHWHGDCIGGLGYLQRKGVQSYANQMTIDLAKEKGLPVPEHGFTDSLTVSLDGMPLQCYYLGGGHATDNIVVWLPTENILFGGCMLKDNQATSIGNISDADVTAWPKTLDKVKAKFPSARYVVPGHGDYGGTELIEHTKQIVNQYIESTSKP
# Sequence of class C enzyme AmpC (P05364 21-381): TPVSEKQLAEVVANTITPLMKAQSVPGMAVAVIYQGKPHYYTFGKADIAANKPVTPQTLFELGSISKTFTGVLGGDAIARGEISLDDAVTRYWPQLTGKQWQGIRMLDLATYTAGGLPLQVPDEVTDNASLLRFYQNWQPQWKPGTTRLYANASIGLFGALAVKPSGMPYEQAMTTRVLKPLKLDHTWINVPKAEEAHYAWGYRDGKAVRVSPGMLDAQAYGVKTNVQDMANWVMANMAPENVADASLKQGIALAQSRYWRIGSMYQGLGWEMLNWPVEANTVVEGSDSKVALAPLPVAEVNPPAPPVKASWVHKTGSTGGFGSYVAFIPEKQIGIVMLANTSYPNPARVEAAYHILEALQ
# Sequence of class A β-lactamase TEM-1 (P62593 24-286 limits assumed): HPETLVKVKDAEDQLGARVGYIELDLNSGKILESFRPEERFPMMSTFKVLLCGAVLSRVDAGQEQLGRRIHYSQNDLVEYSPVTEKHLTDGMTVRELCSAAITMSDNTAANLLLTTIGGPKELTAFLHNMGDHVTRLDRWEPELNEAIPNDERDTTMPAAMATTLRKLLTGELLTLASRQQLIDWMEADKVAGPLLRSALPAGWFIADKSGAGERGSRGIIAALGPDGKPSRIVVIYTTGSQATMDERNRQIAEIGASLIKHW
# Sequence of class A β-lactamase Imi-1 (Q46991 entry or part of it): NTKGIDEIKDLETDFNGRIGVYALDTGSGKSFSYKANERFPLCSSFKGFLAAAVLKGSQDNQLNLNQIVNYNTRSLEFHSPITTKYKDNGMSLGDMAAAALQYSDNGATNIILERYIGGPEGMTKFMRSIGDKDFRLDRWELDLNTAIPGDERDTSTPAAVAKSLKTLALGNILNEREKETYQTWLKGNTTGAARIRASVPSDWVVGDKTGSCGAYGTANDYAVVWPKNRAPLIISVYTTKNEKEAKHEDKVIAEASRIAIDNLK
structure (smiles),measurement,setting,value
"O=C(O)C1=CS[C@@H]2/C(=C\c3cc4oc5c(n4n3)CCOC5)C(=O)N12 [Example 31, (5R,6Z)-6-(7,8-dihydro-5H-pyrano[4,3-d]pyrazolo[5,1-b][1,3]oxazol-2-ylmethylene)-7-oxo-4-thia-1-azabicyclo[3.2.0]hept-2-ene-2-carboxylic acid, sodium salt]",IC50,class B enzyme CcrA,130 nM
same,IC50,[1],140 nM
same,IC50,class C enzyme AmpC,4 nM
same,IC50,[2],4.3 nM
Cc1cccc2sc3nc(/C=C4/C(=O)N5C(C(=O)O)=CS[C@H]45)cn3c12 [Example 13],IC50,class B enzyme CcrA,228 nM
same,IC50,[1],102 nM
same,IC50,class C enzyme AmpC,1.6 nM
same,IC50,[2],8.7 nM
"O=C(O)C1=CS[C@@H]2/C(=C\c3cn4nc5c(c4s3)CCC5)C(=O)N12 [Example 18, (5R),(6Z)-6-(7,8-dihydro-6H-cyclopenta[3,4]pyrazolo[5,1-b][1,3]thiazol-2-ylmethylene)-7-oxo-64-thia-1-azabicyclo[3.2.0]hept-2-ene-2-carboxylic acid]",Minimal Inhibitory Concentration S. Marcescens GC1781 Sme-1 + Ampc,[3],4 µg/mL
same,Minimal Inhibitory Concentration E. Coli GC2894 (Ampc),E. Coli GC2894 (Ampc),>64 µg/mL
same,Minimal Inhibitory Concentration E. Coli GC2203,E. Coli GC2203,4 µg/mL
same,Minimal Inhibitory Concentration P. aeruginos GC1764 (Ampc),[4],64 µg/mL
same,Minimal Inhibitory Concentration E. Coli GC2847 (TEM-1),E. Coli GC2847 (TEM-1),>64 µg/mL
same,Minimal Inhibitory Concentration E. Cloacae GC1477 (Ampc),E. Cloacae GC1477 (Ampc),>64 µg/mL
same,Minimal Inhibitory Concentration E. Coli GC2920 (IRT-2),E. Coli GC2920 (IRT-2),4 µg/mL
same,Minimal Inhibitory Concentration E. Coli GC2844,E. Coli GC2844,2 µg/mL
"CCOC(=O)N1CCc2c(oc3cc(/C=C4/C(=O)N5C(C(=O)[O-])=CS[C@H]45)nn23)C1.[Na+] [Example 33, (5R,6Z)-6-{[6-(ethoxycarbonyl)-5,6,7,8-tetrahydropyrazolo[5′,1′:2,3][1,3]oxazolo[5,4-c]pyridin-2-yl]methylene}-7-oxo-4-thia-1-1-azabicyclo[3.2.0]hept-2-ene-2-carboxylic acid, sodium salt]",Minimal Inhibitory Concentration S. Marcescens GC1781 Sme-1 + Ampc,[3],2 µg/mL
same,Minimal Inhibitory Concentration E. Coli GC2894 (Ampc),E. Coli GC2894 (Ampc),64 µg/mL
same,Minimal Inhibitory Concentration E. Coli GC2203,E. Coli GC2203,2 µg/mL
same,Minimal Inhibitory Concentration P. aeruginos GC1764 (Ampc),[4],>64 µg/mL
same,Minimal Inhibitory Concentration E. Coli GC2847 (TEM-1),E. Coli GC2847 (TEM-1),64 µg/mL
same,Minimal Inhibitory Concentration E. Cloacae GC1477 (Ampc),E. Cloacae GC1477 (Ampc),>64 µg/mL
same,Minimal Inhibitory Concentration E. Coli GC2920 (IRT-2),E. Coli GC2920 (IRT-2),4 µg/mL
same,Minimal Inhibitory Concentration E. Coli GC2844,E. Coli GC2844,2 µg/mL
same,IC50,class B enzyme CcrA,160 nM
same,IC50,[1]; [5],360 nM
same,IC50,class C enzyme AmpC; [6],140 nM
same,IC50,[2]; [7],10 nM
"O=C([O-])C1=CS[C@@H]2/C(=C\c3cc4c(s3)-c3cccnc3SC4)C(=O)N12.[Na+] [Example 21, (5R,6Z)-7-oxo-6-(4H-thieno[2′,3′:45]thiopyrano[2,3-b]pyridin-2-ylmethylene)-4-thia-1-azabicyclo[3.2.0]hept-2-ene-2-carboxylic acid (Sodium salt)]",Minimal Inhibitory Concentration S. Marcescens GC1781 Sme-1 + Ampc,[3],2 µg/mL
same,Minimal Inhibitory Concentration E. Coli GC2894 (Ampc),E. Coli GC2894 (Ampc),32 µg/mL
same,Minimal Inhibitory Concentration E. Coli GC2203,E. Coli GC2203,2 µg/mL
same,Minimal Inhibitory Concentration P. aeruginos GC1764 (Ampc),[4],64 µg/mL
same,Minimal Inhibitory Concentration E. Coli GC2847 (TEM-1),E. Coli GC2847 (TEM-1),>64 µg/mL
same,Minimal Inhibitory Concentration E. Cloacae GC1477 (Ampc),E. Cloacae GC1477 (Ampc),>64 µg/mL
same,Minimal Inhibitory Concentration E. Coli GC2920 (IRT-2),E. Coli GC2920 (IRT-2),4 µg/mL
same,Minimal Inhibitory Concentration E. Coli GC2844,E. Coli GC2844,2 µg/mL
same,IC50,class B enzyme CcrA,210 nM
same,IC50,[1]; [5],580 nM
same,IC50,class C enzyme AmpC; [6],3.7 nM
same,IC50,[2]; [7],11 nM
"O=C(O)C1=CS[C@@H]2/C(=C\c3cn4c(nc5ccccc54)s3)C(=O)N12 [Example 17, (5R),(6Z)-7-oxo-6-([1,3]thiazolo[3,2-a]benzimidazol-2-ylmethylene)-4-thia-1-azabicyclo[3.2.0]hept-2-ene-2-carboxylic acid]",Minimal Inhibitory Concentration S. Marcescens GC1781 Sme-1 + Ampc,[3],8 µg/mL
same,Minimal Inhibitory Concentration E. Coli GC2894 (Ampc),E. Coli GC2894 (Ampc),>64 µg/mL
same,Minimal Inhibitory Concentration E. Coli GC2203,E. Coli GC2203,2 µg/mL
same,Minimal Inhibitory Concentration P. aeruginos GC1764 (Ampc),[4],32 µg/mL
same,Minimal Inhibitory Concentration E. Coli GC2847 (TEM-1),E. Coli GC2847 (TEM-1),64 µg/mL
same,Minimal Inhibitory Concentration E. Cloacae GC1477 (Ampc),E. Cloacae GC1477 (Ampc),>64 µg/mL
same,Minimal Inhibitory Concentration E. Coli GC2920 (IRT-2),E. Coli GC2920 (IRT-2),4 µg/mL
same,Minimal Inhibitory Concentration E. Coli GC2844,E. Coli GC2844,2 µg/mL
"Cn1c2ccccc2n2cc(/C=C3/C(=O)N4C(C(=O)O)=CS[C@H]34)nc12 [Example 20, (5R),(6Z)-8-[(9-methyl-9H-imidazo[1,2-a]benzimidazol-2-yl)methylene]-7-oxo-4-thia-1-azabicyclo[3.2.0]hept-2-ene-2-carboxylic acid]",Minimal Inhibitory Concentration S. Marcescens GC1781 Sme-1 + Ampc,[3],2 µg/mL
same,Minimal Inhibitory Concentration E. Coli GC2894 (Ampc),E. Coli GC2894 (Ampc),32 µg/mL
same,Minimal Inhibitory Concentration E. Coli GC2203,E. Coli GC2203,2 µg/mL
same,Minimal Inhibitory Concentration P. aeruginos GC1764 (Ampc),[4],32 µg/mL
same,Minimal Inhibitory Concentration E. Coli GC2847 (TEM-1),E. Coli GC2847 (TEM-1),>64 µg/mL
same,Minimal Inhibitory Concentration E. Cloacae GC1477 (Ampc),E. Cloacae GC1477 (Ampc),>64 µg/mL
same,Minimal Inhibitory Concentration E. Coli GC2920 (IRT-2),E. Coli GC2920 (IRT-2),4 µg/mL
same,Minimal Inhibitory Concentration E. Coli GC2844,E. Coli GC2844,4 µg/mL
"COc1nc2nc(/C=C3/C(=O)N4C(C(=O)O)=CS[C@H]34)cn2c2c1CCC2 [Example 26, (5R,6Z)-6-[(5-methoxy-7,8-dihydro-6H-cyclopenta[e]imidazo[1,2-a]pyrimidin-2-yl)methylene]-7-oxo-4-thia-1-azabicyclo[3.2.0]hept-2-ene-2-carboxylic acid, sodium salt]",IC50,class B enzyme CcrA,420 nM
same,IC50,[1],63 nM
same,IC50,class C enzyme AmpC,10 nM
same,IC50,[2],48 nM
"O=C(O)C1=CS[C@@H]2/C(=C/c3ccc4c(c3)N(Cc3ccccc3)C(=O)c3ccccc3O4)C(=O)N12 [Example 9, (5R,6E)-6-[(10-benzyl-ii-oxo-10,11-dihydrodibenzo[b,f][1,4]oxazepin-8-yl)methylene]-7-oxo-4-thia-1-azabicyclo[3.2.0]hept-2-ene-2-carboxylic Acid]",IC50,class B enzyme CcrA,220 nM
same,IC50,[1],3600 nM
same,IC50,class C enzyme AmpC,4.5 nM
same,IC50,[2],3.5 nM
"O=C(O)C1=CS[C@@H]2/C(=C\c3cn4c(cnc5ccccc54)n3)C(=O)N12 [Example 6, (5R),(6Z)-6-(Imidazo[1,2-a]quinoxaline-2-ylmethylene)-7-oxo-4-thia-1-azabicyclo[3.2.0]hepto-2-ene-2-carboxylic acid, sodium salt]",IC50,class B enzyme CcrA,350 nM
same,IC50,[1],210 nM
same,IC50,class C enzyme AmpC,1.2 nM
same,IC50,[2],2.5 nM
